The values below are quoted from earlier work in patent EP4603079A1, “COMPOSITION COMPRISING A PEPTIDE HAVING AN ISOELECTRIC POINT OF LESS THAN 6.5 AND A CO-POLYAMINO ACID BEARING CARBOXYLATE CHARGES AND HYDROPHOBIC RADICALS” (Adocia, priority 2024, dated 2025).

The target in this data set is T1, amylin receptor 3 (AMYR3) (Homo sapiens, UniProt O60896+P30988).
T1 sequence (P30988 25-474): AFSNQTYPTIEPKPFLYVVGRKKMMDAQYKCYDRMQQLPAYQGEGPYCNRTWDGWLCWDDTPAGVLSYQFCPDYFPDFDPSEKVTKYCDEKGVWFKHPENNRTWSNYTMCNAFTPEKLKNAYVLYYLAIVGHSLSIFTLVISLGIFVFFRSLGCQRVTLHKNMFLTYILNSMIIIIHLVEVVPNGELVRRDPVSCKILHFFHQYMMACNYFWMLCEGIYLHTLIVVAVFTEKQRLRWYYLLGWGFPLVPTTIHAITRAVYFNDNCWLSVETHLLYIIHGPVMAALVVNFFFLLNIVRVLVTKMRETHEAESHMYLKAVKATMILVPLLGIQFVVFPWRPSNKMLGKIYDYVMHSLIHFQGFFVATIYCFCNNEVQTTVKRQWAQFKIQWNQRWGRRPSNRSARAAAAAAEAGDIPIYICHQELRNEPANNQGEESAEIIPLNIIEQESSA
T1 sequence (O60896 24-148): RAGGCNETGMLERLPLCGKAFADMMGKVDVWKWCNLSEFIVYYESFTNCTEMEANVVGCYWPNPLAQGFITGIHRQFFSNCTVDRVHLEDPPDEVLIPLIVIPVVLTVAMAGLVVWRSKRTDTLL
The following applies: procedure of WO2022129526, Assay 2; Tables 4b and 4c there; read-out: EC50value.

Turning to “N-alpha-[(S)-4-Carboxy-4-(19-carboxynonadecanoylamino)butyryl]-[Glu14,Arg17,Pro37]-pramlintide [cagrilintide]”, the EC50 was roughly 0.011 nM.
